Reference: patent publication US11518764B2, “Substituted heteroaryls as inhibitors of the BCL6 BTB domain protein-protein interaction” (Ontario Institute for Cancer Research (OICR), priority 2018, dated 2022)
Where two headings read alike, the source gives them in different places.

What was measured:
[1] = tested on: BCL6 reporter construct (3xBCL6-TK-Luc) in SuDHL4 cells; assay: Cell-based luciferase assay
Procedure: Cell-Based Luciferase Assay
A BCL6 reporter construct containing three copies of the consensus BCL6 binding site, the TK promoter, and the firefly luciferase gene was stably expressed in SuDHL4 cells after lentivirus infection and selection with Blasticidin. SuDHL4-3×BCL6-TK-Luc cells were seeded into a Viewplate 384-well assay dish at 15,000 cells/well in 25 ul medium (Alpha-MEM high glucose containing 10% FBS, 25 mM HEPES, […] GlutaMAX, 100 ug/ml Normocin, and […] Gentamycin, Invitrogen). A HP D300 digital dispenser was used to dose cells with DMSO or test compounds across a 10-point range of concentrations (high dose of 10 uM), and cultures were grown in a humidified 5% CO2 incubator at 37° C. After two days, plates were removed from the incubator and equilibrated to room temperature. An equal volume of neolite reporter gene assay reagent was added to each well, and samples were processed according to manufacturer's instructions (Perkin Elmer). Luminescent signal was measured using an Envision plate reader equipped with a US-Luminescence detector.

[2] = tested on: Karpas422 cells; assay: Tumor cell growth inhibition assay; assay type: cell-based
Procedure: Tumor Cell Growth inhibition Assay
Karpas422 cells were seeded into a 96-well plate at 2,000 cells/well in 150 ul medium (Alpha-MEM containing 10% FBS, […] Normocin, and […] Gentamycin, Invitrogen). A HP D300 digital dispenser was used to dose cells with DMSO or test compounds across a 10-point range of concentrations (high dose of 5 uM), and cultures were grown in a humidified 5% CO2 incubator at 37° C. After six days, plates were removed from incubator and equilibrated to room temperature. An equal volume of ATPlite assay reagent was added to each well, and samples were processed according to manufacturer's instructions (Perkin Elmer). Luminescent signal was measured using an Envision plate reader equipped with a US-Luminescence detector.

[3] = target: BCL6 BTB domain (Homo sapiens (Human), UniProt P41182); assay: Surface plasmon resonance (SPR) assay; assay type: binding; conditions: BCL6 BTB domain captured on SA chip, single cycle kinetics
[4] = Homo sapiens, SU-DHL-4, 48 h, read-out: Luciferase-Assay EC50, uM), SuDHL4-3xBCL6-TK-Luc cells, two days, high dose 10 uM
[5] = Homo sapiens, KARPAS-422, 144 h, read-out: Tumor Growth Inhibition in Karpas-422 (IC50, uM), Karpas422 cells, six days, ATPlite
[6] = read-out: Luciferase-Assay EC50, SuDHL4-3xBCL6-TK-Luc cells, two days, high dose 10 uM
[7] = read-out: Tumor Growth Inhibition in Karpas-422 (IC50), Karpas422 cells, six days, ATPlite

| Compound | EC50 [1, 4] [µM] | IC50 [2, 5] [µM] | Kd [3] [nM] | EC50 [1, 6] [µM] | IC50 [2, 7] [µM] |
| --- | --- | --- | --- | --- | --- |
| Cn1cnc2c(c(-c3cc(C(N)=O)c(O)c(F)c3F)cn2CC(=O)Nc2cc(N3CCOCC3)nc(F)c2Cl)c1=O [Compound I-318] | 0.228 | 0.319 | 51.8 |  |  |
| Cc1nc2c(c(-c3cc(C(N)=O)c(O)c(F)c3F)cn2CC(=O)Nc2cc(N3CCOC[C@@H]3C)ncc2Cl)c(=O)n1C [Compound I-249] | 0.689 | 0.736 | 77.3 |  |  |
| C[C@@H]1CN(c2cc(NC(=O)Cn3cc(-c4cc(C(N)=O)c(O)c(Cl)c4F)c4c(=O)n(C)cnc43)c(Cl)cn2)C[C@H](C)O1 [Compound I-192] |  |  | 757 | 3.98 | 1.24 |
| Cn1cnc2c(c(-c3cc(C(N)=O)c(O)c(F)c3F)cn2CC(=O)Nc2cc(N3CCCC3)ncc2Cl)c1=O [Compound I-298] | 0.399 | 0.883 | 32.4 |  |  |
| C[C@H]1CN(CC(O)CCO)CCN1c1cc(NC(=O)Cn2cc(-c3cc(C(N)=O)c(O)c(F)c3F)c3c(=O)n(C)cnc32)c(Cl)c(F)n1 (stereo partly drawn) [Compound I-459, 5-(7-(2-((3-chloro-6-((2S)-4-(2,4-dihydroxybutyl)-2-methylpiperazin-1-yl)-2-fluoropyridin-4-yl)amino)-2-oxoethyl)-3-methyl-4-oxo-4,7-dihydro-3H-pyrrolo[2,3-d]pyrimidin-5-yl)-3,4-difluoro-2-hydroxybenzamide] | 0.945 | 1.06 | 6.55 |  |  |
| C[C@H]1COCCN1c1cc(NC(=O)Cn2cc(-c3cc(Cl)c(O)c(C(N)=O)c3)c3c(=O)n(C)c(C(F)(F)F)nc32)c(Cl)cn1 [Compound I-216] | 0.97 | 0.831 | 76.4 |  |  |
| Cn1ccc2c(c(-c3cc(F)c(O)c(C(N)=O)c3)cn2CC(=O)Nc2cc(N3CCOCC3)ncc2Cl)c1=O [Compound I-140] | 1.33 | 1.28 | 317 |  |  |
| CCN1CCN(c2cc(NC(=O)Cn3cc(-c4cc(Cl)c(O)c(C(N)=O)c4)c4c(=O)n(C)c(C)nc43)c(Cl)cn2)[C@@H](C)C1 [Compound I-431] | 0.193 | 0.175 | 30.7 |  |  |
| CN1C2CCC1CN(c1cc(NC(=O)Cn3cc(-c4cc(C(N)=O)c(O)c(F)c4F)c4c(=O)n(C)cnc43)c(Cl)cn1)C2 [Compound I-285] | 1.6 | 1.6 | 102 |  |  |
| C[C@H]1CN(C2COC2)CCN1c1cc(NC(=O)Cn2cc(-c3cc(Cl)c(O)c(C(N)=O)c3)c3c(=O)n(C)c(C(F)(F)F)nc32)c(Cl)cn1 [Compound I-371] | 0.141 | 0.288 | 39.5 |  |  |
| Cn1cnc2c(c(-c3cc(Cl)c(O)c(C(N)=O)c3)cn2CC(=O)Nc2cc(N3C4CCC3CC4)ncc2Cl)c1=O [Compound I-125] | 3.76 | 0.407 | 30 |  |  |
| C[C@H]1COCCN1c1cc(NC(=O)Cn2cc(-c3cc(C(N)=O)c(O)c4c3OCO4)c3c(=O)n(C)cnc32)c(Cl)cn1 [Compound I-302] | 0.0865 | 0.0528 | 5.05 |  |  |
| Cn1cnc2c(c(-c3cc(Cl)c(O)c(C(N)=O)c3)cn2CC(=O)Nc2c(Cl)cnc(N3CCOCC3)c2F)c1=O [Compound I-191] |  |  | 122 | 5.42 | 4.72 |
| C[C@H]1COCCN1c1cc(NC(=O)Cn2cc(-c3cc(C(N)=O)c(O)cc3F)c3c(=O)n(C)cnc32)c(Cl)cn1 [Compound I-161] | 0.971 | 1.29 | 115 |  |  |
| Cn1cnc2c(c(-c3cc(Cl)c(O)c(C(N)=O)c3)cn2CC(=O)Nc2cc(N3CCC(F)C3)ncc2Cl)c1=O (stereo not drawn) [Compound I-67] | 0.296 | 0.267 | 14 |  |  |
| CC(C)[C@H]1CN(C)CCN1c1cc(NC(=O)Cn2cc(-c3cc(C(N)=O)c(O)c(F)c3F)c3c(=O)n(C)cnc32)c(Cl)cn1 [Compound I-361] | 1.33 | 1.37 | 70.8 |  |  |
| Cc1c(N2CCOCC2)ncc(F)c1NC(=O)Cn1cc(-c2cc(Cl)c(O)c(C(N)=O)c2)c2c(=O)n(C)cnc21 [Compound I-194] | 11 | 5.65 | 120 |  |  |
| COc1cc(NC(=O)Cn2cc(-c3cc(Cl)c(O)c(C(N)=O)c3)c3c(=O)n(C)c(O)nc32)c(Cl)cn1 [Compound I-290] | 10 | 10 | 18400 |  |  |

| Compound | EC50 [1, 4] [µM] | IC50 [2, 5] [µM] | Kd [3] [nM] | EC50 [1, 6] [µM] | IC50 [2, 7] [µM] |
| --- | --- | --- | --- | --- | --- |
| C[C@H]1COCCN1c1cc(NC(=O)Cn2cc(-c3cc(C(N)=O)c(O)c(Cl)c3F)c3c(=O)n(C)cnc32)c(Cl)c(F)n1 [Compound I-409] | 2.34 | 1.82 | 95.2 |  |  |
| C[C@H]1CN(CCC(F)(F)F)CCN1c1cc(NC(=O)Cn2cc(-c3cc(C(N)=O)c(O)c(F)c3F)c3c(=O)n(C)cnc32)c(Cl)c(F)n1 [Compound I-464] | 0.213 | 0.421 | 83.8 |  |  |
| C[C@@H]1CN(c2cc(NC(=O)Cn3cc(-c4cc(Cl)c(O)c(C(N)=O)c4)c4c(=O)n(C)cnc43)c(Cl)cn2)C[C@H](C)O1 [Compound I-13] | 0.17 | 0.18 | 22 |  |  |
| Cn1cnc2c(c(-c3cc(C(N)=O)c(O)cc3F)cn2CC(=O)Nc2cc(N3C[C@H]4CCO[C@H]4C3)ncc2Cl)c1=O [Compound I-163] | 0.572 | 0.93 | 50.5 |  |  |
| Cn1cnc2c(c(-c3cc(C(N)=O)c(O)c(F)c3F)cn2CC(=O)Nc2cc(N3C4CCC3CN(CC(F)(F)F)C4)ncc2Cl)c1=O [Compound I-465] | 4.47 | 1.17 | 84.9 |  |  |
| C[C@H]1COCCN1c1cc(NC(=O)Cn2cc(-c3cc(F)c(O)c(C(N)=O)c3)c3c(=O)n(C)c(C(F)(F)F)nc32)c(Cl)cn1 [Compound I-234] | 0.441 | 0.255 | 48.8 |  |  |
| CN(C)CC1CN(c2cc(NC(=O)Cn3cc(-c4cc(Cl)c(O)c(C(N)=O)c4)c4c(=O)n(C)cnc43)c(Cl)cn2)CCO1 (stereo not drawn) [Compound I-215] | 0.806 | 0.662 | 9.81 |  |  |
| CC[C@H]1CN(c2cc(NC(=O)Cn3cc(-c4cc(Cl)c(O)c(C(N)=O)c4)c4c(=O)n(C)cnc43)c(Cl)cn2)CCO1 [Compound I-203] | 0.222 | 0.187 | 30.6 |  |  |
| CO[C@H]1CN(c2cc(NC(=O)Cn3cc(-c4cc(C(N)=O)c(O)c(F)c4F)c4c(=O)n(C)cnc43)c(Cl)cn2)C[C@H]1F [Compound I-364] | 0.819 | 1.04 | 25 |  |  |
| Cn1cnc2c(c(-c3cc(Cl)c(O)c(C(N)=O)c3)cn2CC(=O)Nc2cc(N3CCCC4(CCOCC4)C3)ncc2Cl)c1=O [Compound I-156] | 0.941 | 0.576 | 49.6 |  |  |
| CCN1CCN(c2cc(NC(=O)Cn3cc(-c4cc(C(N)=O)c(O)c(F)c4F)c4c(=O)n(C)c(C)nc43)c(Cl)cn2)[C@@H](C)C1 [Compound I-435] | 0.847 | 0.415 | 48.9 |  |  |
| CN1CCN(c2cc(NC(=O)Cn3cc(-c4cc(C(N)=O)c(O)c(Cl)c4F)c4c(=O)n(C)cnc43)c(Cl)cn2)CC1 [Compound I-188] | 4.75 | 2.95 | 435 |  |  |
| CO[C@@H]1CC(c2cc(NC(=O)Cn3cc(-c4cc(Cl)c(O)c(C(N)=O)c4)c4c(=O)n(C)cnc43)c(Cl)c(F)n2)C[C@@H]1F (stereo partly drawn) [Compound I-440] | 0.286 | 0.291 | 15.8 |  |  |
| C[C@H]1CN(C2COC2)CCN1c1cc(NC(=O)Cn2cc(-c3cc(F)c(O)c(C(N)=O)c3)c3c(=O)n(C)cnc32)c(Cl)cn1 [Compound I-372] | 0.233 | 0.267 | 7.41 |  |  |
| C[C@H]1COCCN1c1cc(NC(=O)Cn2cc(-c3cc(F)c(O)c(C(N)=O)c3)c3c(=O)n(CC#Cc4cnn(C)c4)cnc32)c(Cl)cn1 [Compound I-457] | 0.328 | 0.183 | 13.1 |  |  |
| Cn1cnc2c(c(-c3cc(Cl)c(O)c(C(N)=O)c3)cn2CC(=O)Nc2cc(F)nc(F)c2F)c1=O [Compound I-208] | 5.15 | 1.2 | 567 |  |  |
| CO[C@H]1CN(c2cc(NC(=O)Cn3cc(-c4cc(Cl)c(O)c(C(N)=O)c4)c4c(=O)n(C)c(C(F)(F)F)nc43)c(Cl)cn2)C[C@H]1F [Compound I-387] | 1.12 | 1.04 | 189 |  |  |
| C[C@@H]1CN(c2cc(NC(=O)Cn3cc(-c4cc(Cl)c(O)c(C(N)=O)c4)c4c(=O)[nH]cnc43)c(Cl)cn2)C[C@H](C)O1 [Compound I-166] | 0.184 | 0.0862 | 15 |  |  |
